This test deals with DCN1 (DCUND1) protein PONY domain (Homo sapiens (Human), UniProt Q96GG9). Put plainly: TR-FRET assay (binding to DCN-1, displacement of FAM-labeled probe). In outline: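 Compounds read at 1, 5 and 24 h, 0.1% final DMSO, by TR-FRET between terbium-streptavidin on biotinylated DCN1 PONY domain (E. coli) and a FAM-tagged non-covalent inhibitor probe. Two setups used, 5 nM protein with 20 nM labelled probe, or 0.31 nM protein with 100 nM labelled plus 800 nM unlabelled probe; buffer had TritonX and 200 mM NaCl. % activity relative to high (with probe) and low (without probe) controls.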
In general terms: TR-FRET usually uses a lanthanide donor and a delayed reading to cut background.

Setting [1] is: 24 hr after treatment with compound, read-out: TR FRET IC50 24 hr.
Setting [2] is: read-out: TR FRET IC50 1 hr, 1 hr after treatment with compound.
[3] abbreviates: TR FRET IC50 1 hr (nM), 1 hr after treatment with compound.

Molecules are shown by their SMILES. Read-outs that look alike come from different tables or passages of the source. A value given as a limit tells only on which side of the number the result lay.

DCN1 (DCUND1) protein PONY domain, sequence (Q96GG9 60-248): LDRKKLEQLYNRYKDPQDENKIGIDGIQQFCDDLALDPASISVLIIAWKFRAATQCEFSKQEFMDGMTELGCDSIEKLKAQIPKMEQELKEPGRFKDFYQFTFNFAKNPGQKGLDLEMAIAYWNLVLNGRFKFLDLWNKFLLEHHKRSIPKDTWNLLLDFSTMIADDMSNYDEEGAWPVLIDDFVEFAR

A word on the IC50: it is the concentration that inhibits the measured activity by half. In the case of `C=C(CN(C)C1COC1)C(=O)NCc1cccc([C@@H]2c3c(C)nn(-c4ccccc4)c3N(CC)C(=O)[C@H]2NC(=O)c2cccc(C(F)(F)F)c2)c1` [Compound I-312], the IC50 by setting is: under setting [1], at most 200 nM; under setting [2], at most 200 nM. In the case of `C=C(C(=O)N(C)Cc1cccc([C@@H]2c3cnn(-c4ccccc4)c3N(CC)C(=O)[C@H]2NC(=O)c2ccn(C(F)(F)F)n2)c1)C(C)N(C)C1COC1` (stereo partly shown) [Compound I-313], the IC50 under setting [1] was at most 200 nM and the half-inhibitory concentration (IC50) under setting [3] is 1000 to 3000 nM. In the same order, the values of `C/C=C(\CN1CCC1)C(=O)NCc1cccc([C@@H]2c3cnn(-c4ccccc4)c3N(CC)C(=O)[C@H]2NC(=O)c2nccc(C(F)(F)F)n2)c1` [Compound I-314] are at most 200 nM and 200 to 1000 nM.

For the compound `C=C(CN1CC2CC(C1)O2)C(=O)NCc1cccc([C@@H]2c3cnn(-c4ccccc4)c3N(CC)C(=O)[C@H]2NC(=O)c2ccn(C(F)(F)F)n2)c1` [Compound I-315], the concentration for half-maximal inhibition (IC50) was at most 200 nM under setting [1] and at most 200 nM under setting [2].

Regarding `C=C(C(=O)NCc1cccc([C@@H]2c3cnn(-c4ccccc4)c3N(CC)C(=O)[C@H]2NC(=O)c2cccc(C(F)(F)F)c2)c1)C(C)N1CCN(C2COC2)CC1` (stereo partly shown) [Compound I-317], the IC50 by setting is: under setting [1], at most 200 nM; under setting [2], at most 200 nM. For `C=C(CN(C)C1COC1)C(=O)N(C)Cc1cccc([C@@H]2c3cnn(-c4ccccc4)c3N(CC)C(=O)[C@H]2NC(=O)c2csc(C(F)(F)F)n2)c1` [Compound I-318], the IC50 under setting [1] was at most 200 nM and the IC50 under setting [3] fell in the range of 200 to 1000 nM. Consider `CCN1C(=O)[C@@H](NC(=O)c2cccc(C(F)(F)F)c2)[C@H](c2cncc(NC(=O)C3=CCC3)c2)c2cnn(-c3ccccc3)c21` [Compound I-319], for which the IC50 lay in the range of 200 to 1000 nM under setting [1] and 1000 to 3000 nM under setting [3]. In the same order, the values of `CCN1C(=O)[C@@H](NC(=O)c2cccc(C(F)(F)F)c2)[C@H](c2cncc(NC(=O)/C=C/CN(C)C)c2)c2cnn(-c3ccccc3)c21` [Compound I-320] are 200 to 1000 nM and 1000 to 3000 nM. As for `C/C=C(\CN1CC2(COC2)C1)C(=O)N(C)Cc1cccc([C@@H]2c3cnn(-c4ccccc4)c3N(CC)C(=O)[C@H]2NC(=O)c2ccn(C(F)(F)F)n2)c1` [Compound I-321], the 50% inhibitory concentration (IC50) was in the range of 1000 to 3000 nM under setting [1] and 1000 to 3000 nM under setting [3]. For `C/C=C(\CN(C)C1COC1)C(=O)NCc1cccc([C@@H]2c3cnn(-c4ccccc4)c3N(CC)C(=O)[C@H]2NC(=O)c2nccc(C(F)(F)F)n2)c1` [Compound I-322], the IC50 is, setting by setting: under setting [1], at most 200 nM; under setting [3], 1000 to 3000 nM. On the same counts, the results for `CCN1C(=O)[C@@H](NC(=O)c2ccn(C(F)(F)F)n2)[C@H](c2cccc(NC(=O)C3=CCN(C)C3)c2)c2c(C)nn(-c3ccccc3)c21` [Compound I-323] are at most 200 nM and 200 to 1000 nM. For `C=C(C(=O)NCc1cccc([C@@H]2c3cnn(-c4ccccc4)c3N(CC)C(=O)[C@H]2NC(=O)c2nccc(C(F)(F)F)n2)c1)C(C)N1CC2CC(C1)O2` (stereo partly shown) [Compound I-324], the IC50 under setting [1] is at most 200 nM and the concentration for half-maximal inhibition (IC50) under setting [2] is at most 200 nM. On to `C=C(C(=O)NCc1cccc([C@@H]2c3cnn(-c4ccccc4)c3N(CC)C(=O)[C@H]2NC(=O)c2ccn(C3CC3)n2)c1)C(C)N1CCC12COC2` (stereo partly shown) [Compound I-325], for which the IC50 under setting [3] was in the range of 200 to 1000 nM. Consider `C/C=C(\CN1CCOCC1)C(=O)N(C)Cc1cccc([C@@H]2c3cnn(-c4ccccc4)c3N(CC)C(=O)[C@H]2NC(=O)c2nccc(C(F)(F)F)n2)c1` [Compound I-326], for which the IC50 fell in the range of 1000 to 3000 nM under setting [1] and 1000 to 3000 nM under setting [3]. As for `C=C(C(=O)NCc1cccc([C@@H]2c3cnn(-c4ccccc4)c3N(CC)C(=O)[C@H]2NC(=O)c2ccn(C3CC3)n2)c1)C(C)N(C)C1COC1` (stereo partly shown) [Compound I-327], the IC50 is at most 200 nM under setting [1] and at most 200 nM under setting [2]. Consider `CCN1C(=O)[C@@H](NC(=O)c2cccc(C(F)(F)F)c2)[C@@H](c2cncc(NC(=O)/C=C/CN(C)C)c2)c2cnn(-c3ccccc3)c21` [Compound I-329], for which the IC50 was in the range of 1000 to 3000 nM under setting [1] and 1000 to 3000 nM under setting [3]. `CCN1C(=O)[C@@H](NC(=O)c2nccc(C(F)(F)F)n2)[C@H](c2cccc(C(=O)N3C[C@@H](F)C[C@H]3C#N)c2)c2cnn(-c3ccccc3)c21` [Compound I-330]: the IC50 under setting [1] lay in the range of 1000 to 3000 nM and the IC50 under setting [3] was in the range of 1000 to 3000 nM. Take `C=C(Cn1cc(F)cn1)C(=O)NCc1cccc([C@@H]2c3cnn(-c4ccccc4)c3N(CC)C(=O)[C@H]2NC(=O)c2nccc(C(F)(F)F)n2)c1` [Compound I-331]: the IC50 under setting [1] was in the range of 200 to 1000 nM and the IC50 under setting [3] lay within 1000 to 3000 nM.

`C=C(CN1CCC12COC2)C(=O)NCc1cccc([C@@H]2c3cnn(-c4ccccc4)c3N(CC)C(=O)[C@H]2NC(=O)c2cccc(C(F)(F)F)c2)c1` [Compound I-332]: the IC50 under setting [1] is at most 200 nM and the IC50 under setting [2] is at most 200 nM.

For `C=C(CN1CCN(C2COC2)CC1)C(=O)NCc1cccc([C@@H]2c3cnn(-c4ccccc4)c3N(CC)C(=O)[C@H]2NC(=O)c2nccc(C(F)(F)F)n2)n1` [Compound I-333], the IC50 runs as follows: under setting [1], at most 200 nM; under setting [3], 200 to 1000 nM. On the same counts, the results for `C=C(C(=O)NCc1cccc([C@@H]2c3cnn(-c4ccccc4)c3N(CC)C(=O)[C@H]2NC(=O)c2ccn(CCF)n2)c1)C(C)N(C)C1COC1` (stereo partly shown) [Compound I-334] are at most 200 nM and 200 to 1000 nM. In the same order, the values of `CCC(=O)NCc1cccc([C@@H]2c3cnn(-c4ccccc4)c3N(CC)C(=O)[C@H]2NC(=O)c2ccn(C(F)(F)F)n2)c1` [Compound I-335] are 200 to 1000 nM and 1000 to 3000 nM. In the same order, the values of `C/C=C(\CN1CC2CC(C1)O2)C(=O)Nc1cccc([C@@H]2c3cnn(-c4ccccc4)c3N(CC)C(=O)[C@H]2NC(=O)c2nccc(C(F)(F)F)n2)c1` [Compound I-337, N-((4R,5S)-4-(3-((E)-2-((6-oxa-3-azabicyclo[3.1.1]heptan-3-yl)methyl)but-2-enamido)phenyl)-7-ethyl-6-oxo-1-phenyl-4,5,6,7-tetrahydro-1H-pyrazolo[3,4-b]pyridin-5-yl)-4-(trifluoromethyl)pyrimidine-2-carboxamide] are at most 200 nM and 200 to 1000 nM. As for `C=C(CN1CCOCC1)C(=O)NCc1cccc([C@@H]2c3cnn(-c4ccccc4)c3N(CC)C(=O)[C@H]2NC(=O)c2ccn(C)n2)c1` [Compound I-338], the IC50 under setting [1] is at most 200 nM and the IC50 under setting [3] was in the range of 1000 to 3000 nM. On the same counts, the results for `CCN1C(=O)[C@@H](NC(=O)c2cccc(C(F)(F)F)c2)[C@H](c2cccc(CN(C)C/C=C/C(=O)N(C)C)c2)c2cnn(-c3ccccc3)c21` [Compound I-339] are 1000 to 3000 nM and 1000 to 3000 nM. In the same order, the values of `C=C(CN1CCOCC1)C(=O)NCc1cccc([C@@H]2c3cnn(-c4ccccc4)c3N(CC)C(=O)[C@H]2NC(=O)c2ccn(CC#N)n2)c1` [Compound I-340, 1-(cyanomethyl)-N-((4R,5S)-7-ethyl-4-(3-((2-(morpholinomethyl)acrylamido)methyl)phenyl)-6-oxo-1-phenyl-4,5,6,7-tetrahydro-1H-pyrazolo[3,4-b]pyridin-5-yl)-1H-pyrazole-3-carboxamide] are 200 to 1000 nM and 1000 to 3000 nM.

With `C/C=C(\CN1CCC1)C(=O)NCc1cccc([C@@H]2c3cnn(-c4ccccc4)c3N(CC)C(=O)[C@H]2NC(=O)c2cccc(C(F)(F)F)c2)c1` [Compound I-341], the IC50 was at most 200 nM under setting [1] and 200 to 1000 nM under setting [3]. In the same order, the values of `C=C(C(=O)N(C)Cc1cccc([C@@H]2c3cnn(-c4ccccc4)c3N(CC)C(=O)[C@H]2NC(=O)c2ccn(C3CC3)n2)c1)C(C)N1CCC12COC2` (stereo partly shown) [Compound I-343] are 200 to 1000 nM and 1000 to 3000 nM.

Turning to `C=C(C(=O)NCc1cccc([C@@H]2c3cnn(-c4ccccc4)c3N(CC)C(=O)[C@H]2NC(=O)c2ccn(C(F)(F)F)n2)c1)C(C)N1CCC12COC2` (stereo partly shown) [Compound I-344], the half-maximal inhibitory concentration (IC50) under setting [1] was at most 200 nM and the IC50 under setting [3] lay within 200 to 1000 nM.

On to `C=C(CN1CC2CC(C1)O2)C(=O)NCc1cccc([C@@H]2c3cnn(-c4ccccc4)c3N(CC)C(=O)[C@H]2NC(=O)c2nccc(C(F)(F)F)n2)c1` [Compound I-346], for which the concentration for half-maximal inhibition (IC50) is, setting by setting: under setting [1], at most 200 nM; under setting [2], at most 200 nM. `C=C(CN1CC2CCC(C1)O2)C(=O)NCc1cccc([C@@H]2c3cnn(-c4ccccc4)c3N(CC)C(=O)[C@H]2NC(=O)c2ccn(C(F)(F)F)n2)c1` [Compound I-347]: the IC50 is, setting by setting: under setting [1], at most 200 nM; under setting [2], at most 200 nM. On to `CCN1C(=O)[C@@H](NC(=O)c2cccc(C(F)(F)F)c2)[C@H](c2cccc(CNC(=O)C3=CCN(C)C3)n2)c2cnn(-c3ccccc3)c21` [Compound I-348], for which the IC50 is, setting by setting: under setting [1], 1000 to 3000 nM; under setting [3], 1000 to 3000 nM. Turning to `C=C(CN(C)C1COC1)C(=O)NCc1cccc([C@H]2c3c(C)nn(-c4ccccc4)c3N(CC)C(=O)[C@@H]2NC(=O)c2cccc(C(F)(F)F)c2)c1` [Compound I-349], the IC50 reads like this: under setting [1], 200 to 1000 nM; under setting [3], 1000 to 3000 nM. On the same counts, the results for `C=C(CN1CCOCC1)C(=O)NCc1cccc([C@@H]2c3cnn(-c4ccccc4)c3N(CC)C(=O)[C@H]2NC(=O)c2ccn(CC)n2)c1` [Compound I-351] are at most 200 nM and 200 to 1000 nM. On to `C=C(C(=O)NCc1cccc([C@@H]2c3cnn(-c4ccccc4)c3N(CC)C(=O)[C@H]2NC(=O)c2csc(C(F)(F)F)n2)c1)C(C(C)C)N(C)C1COC1` (stereo partly shown) [Compound I-352], for which the half-inhibitory concentration (IC50) runs as follows: under setting [1], at most 200 nM; under setting [2], at most 200 nM. As for `C=C(CN1CCN(C2COC2)CC1)C(=O)NCc1cccc([C@@H]2c3c(C)nn(-c4ccccc4)c3N(CC)C(=O)[C@H]2NC(=O)c2cccc(C(F)(F)F)c2)c1` [Compound I-353], the IC50 is at most 200 nM under setting [1] and at most 200 nM under setting [2].

Regarding `C=C(CN1CCN(C2COC2)CC1)C(=O)NCc1cccc([C@@H]2c3cnn(-c4ccccc4)c3N(CC)C(=O)[C@H]2NC(=O)c2nccc(C(F)(F)F)n2)n1` [Compound I-354], the IC50 lay in the range of 1000 to 3000 nM under setting [1] and 1000 to 3000 nM under setting [3].

(Values after patent US12435087B2, “Modulators of DCN-1 and methods of use thereof” (Cellarity, Inc., priority 2023, dated 2025).)
